Assay results reported in patent US20260294915A1, “COMBINATION THERAPY COMPRISING A MAT2A INHIBITOR AND A TOPOISOMERASE INHIBITOR, A SPLICING INHIBITOR SULFONAMIDE, OR A KIF18 INHIBITOR” (IDEAYA BIOSCIENCES, INC., priority 2023, published 2026).
Read-outs that look alike come from different tables or passages of the source.

Experiments:
Format in all cases: cell-based
NCI-H838 = assay: 10-day proliferation (CTG), Compound B titration + 1000 nM Compound A, Bliss (Example 2); parameters: key: GDI, -100 to 100; 0 = cell number at T0
Procedure: (§1) A 10-day proliferation assay was performed in a panel of 5 MTAP-deficient and 2 wild type non-small cell lung and bladder cancer cell lines. Optimal cell seeding for all cell lines was determined by assessing the growth over a range of seeding densities in a 384-well format to identify conditions that permitted proliferation for 10 days. Cells were then plated at the optimal seeding density and treated with 20-point, two-fold dilution series of Compound B in combination with a 1000 nM fixed concentration of Compound A. Single agent titrations for Compound A and Compound B were included for comparison. Concentrations tested for Compound A and Compound B alone or in combination ranged from 0.038 nM to 20,000 nM. A plate of cells was harvested at the time of compound addition to quantify the number of cells at the start of the combination (T0). For cell quantification, the harvested cells were lysed with Promega CellTiter-Glo (CTG) reagent according to the manufacturer's protocol and the chemiluminescent signal was detected as described in Example 1 above. Cells were incubated with the drug combinations at 37° C. with 5% CO2 for 10 days. Cells were then lysed with CTG and the chemiluminescent signal was measured.
(§2) CTG values obtained after the 10-day treatment were background subtracted and expressed as a percent of the T0 value set at 100%. Data were plotted against compound concentration and fit with a four-parameter equation to generate single agent dose response curves. Percent inhibition was determined for each combination and single agent concentration compared to a DMSO control. In addition, the overall net growth or death of the cells was calculated and reported as a growth death index (GDI) value on a scale of −100 to 100 with the midpoint (0) being the number of cells at the beginning of the combination (T0).
(§3) Predicted inhibition was calculated using (Ea+Eb)−(Ea*Eb) where E equals the effect (inhibition) of each single agent (a and b). A difference between the observed inhibition percentage and the predicted inhibition percentage greater than 10% was considered synergistic. A Bliss score was only calculated for combinations eliciting >20% growth inhibition (GDI value <80). Since Bliss is calculated based on growth inhibition, scores within cytotoxic dose ranges may not accurately reflect synergistic cytotoxicity.
(§4) Synergy was measured across the Compound B titration with 1000 nM Compound A by Bliss Independence analysis. Bliss scores >10 are indicated by “*” and are considered synergistic. […] Synergy as reported using Bliss may be underrepresented within cytotoxic dose ranges. Growth death index values are shown for the combination titration and each single agent Compound A (Cmpd A) and Compound B (Cmpd B) on a scale of −100 to 100 with the midpoint (0) being the number of cells at the beginning of the combination (T0).

RT112/84 = assay: as above; parameters: key: GDI, -100 to 100; 0 = cell number at T0
Procedure: as §1, §2, §3, §4

SW900 = assay: as above; parameters: key: GDI, -100 to 100; 0 = cell number at T0
Procedure: as §1, §2, §3, §4

UMUC11 = assay: as above; parameters: key: GDI, -100 to 100; 0 = cell number at T0
Procedure: as §1, §2, §3, §4

UMUC5 = assay: as above; parameters: key to GDI: GDI, -100 to 100; 0 = cell number at T0
Procedure: as §1, §2, §3, §4

NCI-H2170 = assay: 10-day proliferation screen with Compound A pre-treatment (Example 3); settings: Homo sapiens, read-out: Growth IC50
Procedure: A 10-day proliferation screen was performed in 15 pancreatic, non-small cell lung, and bladder cancer cell lines: 10 MTAP null and 5 MTAP wild-type. Optimal cell seeding for all cell lines was determined by assessing the growth over a range of seeding densities in a 384-well format to identify conditions that permitted proliferation for 10 days. Cells were then plated at the optimal seeding density in the presence of 20-150 nM of Compound A or DMSO vehicle control. Cells were incubated at 37° C. with 5% CO2 for 4 days to allow for target engagement of the pre-treatment compound. Maintaining the pre-treatment condition, cells were also treated with an 11-point, three-fold titration series of compounds from a chemically diverse library of 424 compounds. The combination compound concentrations ranged from 0.2 nM to 14,679 nM. A plate of cells was harvested at the time of combination compound addition to quantify the number of cells at the start of the combination (T0). For cell quantification, the harvested cells were lysed with CellTiter-Glo (CTG) (Promega) reagent according to the manufacturer's protocol and the chemiluminescent signal was detected on a Synergy Neo plate reader (ThermoFisher, serial #140715A). CTG estimates cell number through detection of cellular ATP levels. Cells were incubated with the drug combinations at 37° C. with 5% CO2 for an additional 6 days for a total of a 10-day assay including the pre-treatment. Cells were then lysed with CTG and the chemiluminescent signal was measured. CTG values obtained after the 10-day treatment were background subtracted, expressed as a percent of the T0 value, and plotted against compound concentration. Data were fit with a four-parameter equation to generate concentration response curves. Growth IC50 values and maximal growth inhibition were compared between the DMSO and the Compound A pre-treated cells for each combination titration. Combination hit calling was based on the observation of >2-fold shift in growth IC50 and/or greater than 20% […] in growth inhibition.

[1] = Cmpd B 0.04 nM, combo: + 1000 nM Cmpd A
[2] = Cmpd B 0.1 nM, combo: + 1000 nM Cmpd A
[3] = Cmpd B 0.2 nM, combo: + 1000 nM Cmpd A
[4] = Cmpd B 0.3 nM, combo: + 1000 nM Cmpd A
[5] = Cmpd B 0.6 nM, combo: + 1000 nM Cmpd A
[6] = Cmpd B 1.2 nM, combo: + 1000 nM Cmpd A
[7] = Cmpd B 2.4 nM, combo: + 1000 nM Cmpd A
[8] = Cmpd B 4.9 nM, combo: + 1000 nM Cmpd A
[9] = Cmpd B 9.8 nM, combo: + 1000 nM Cmpd A
[10] = Cmpd B 19.5 nM, combo: + 1000 nM Cmpd A
[11] = Cmpd B 39.1 nM, combo: + 1000 nM Cmpd A
[12] = Cmpd B 78.1 nM, combo: + 1000 nM Cmpd A
[13] = Cmpd B 156.3 nM, combo: + 1000 nM Cmpd A
[14] = Cmpd B 312.5 nM, combo: + 1000 nM Cmpd A
[15] = Cmpd B 625 nM, combo: + 1000 nM Cmpd A
[16] = Cmpd B 1250 nM, combo: + 1000 nM Cmpd A
[17] = Cmpd B 2500 nM, combo: + 1000 nM Cmpd A
[18] = Cmpd B 5000 nM, combo: + 1000 nM Cmpd A
[19] = Cmpd B 10000 nM, combo: + 1000 nM Cmpd A
[20] = Cmpd B 20000 nM, combo: + 1000 nM Cmpd A

With Cc1cc(NC(=O)c2ccc(NS(=O)(=O)CCO)cc2N2CCC3(CC2)CC3)nc(N2CCC(F)(F)CC2)n1 [Compound B, N-(2-(4,4-difluoropiperidin-1-yl)-6-methylpyrimidin-4-yl)-4-((2-hydroxyethyl)sulfonamido)-2-(6-azaspiro[2.5]octan-6-yl)benzamide] the GDI (NCI-H838; [1]) was 100, the GDI (NCI-H838; [2]) was 100 and the GDI (NCI-H838; [3]) was 100. The GDI (NCI-H838; [4]) was 100, the GDI (NCI-H838; [5]) was 100 and the GDI (NCI-H838; [6]) was 100. For the same compound, the GDI (NCI-H838; [7]) was 100, the GDI (NCI-H838; [8]) was 100 and the GDI (NCI-H838; [9]) was 100. For the same compound, the GDI (NCI-H838; [10]) was 100, the GDI (NCI-H838; [11]) was 100 and the GDI (NCI-H838; [12]) was 100. It also gave a GDI (NCI-H838; [13]) of 74, a GDI (NCI-H838; [14]) of 65 and a GDI (NCI-H838; [15]) of 55. It also gave a GDI (NCI-H838; [16]) of 48, a GDI (NCI-H838; [17]) of 58 and a GDI (NCI-H838; [18]) of 87. It also gave a GDI (NCI-H838; [19]) of 61, a GDI (NCI-H838; [20]) of −1 and a GDI (RT112/84; [1]) of 100. For the same compound, the GDI (RT112/84; [2]) was 100, the GDI (RT112/84; [3]) was 100 and the GDI (RT112/84; [4]) was 100. For the same compound, the GDI (RT112/84; [5]) was 100, the GDI (RT112/84; [6]) was 100 and the GDI (RT112/84; [7]) was 100. It also gave a GDI (RT112/84; [8]) of 100, a GDI (RT112/84; [9]) of 100 and a GDI (RT112/84; [10]) of 100. The GDI (RT112/84; [11]) was 100, the GDI (RT112/84; [12]) was 100 and the GDI (RT112/84; [13]) was 63. It also gave a GDI (RT112/84; [14]) of 30, a GDI (RT112/84; [15]) of 24 and a GDI (RT112/84; [16]) of 31. It also gave a GDI (RT112/84; [17]) of 31, a GDI (RT112/84; [18]) of 33 and a GDI (RT112/84; [19]) of 2. For the same compound, the GDI (RT112/84; [20]) was −86, the GDI (SW900; [1]) was 100 and the GDI (SW900; [2]) was 100. For the same compound, the GDI (SW900; [3]) was 100, the GDI (SW900; [4]) was 100 and the GDI (SW900; [5]) was 100. For the same compound, the GDI (SW900; [6]) was 100, the GDI (SW900; [7]) was 99 and the GDI (SW900; [8]) was 100. The GDI (SW900; [9]) was 100, the GDI (SW900; [10]) was 100 and the GDI (SW900; [11]) was 99. It also gave a GDI (SW900; [12]) of 100, a GDI (SW900; [13]) of 100 and a GDI (SW900; [14]) of 100. The GDI (SW900; [15]) was 86, the GDI (SW900; [16]) was 89 and the GDI (SW900; [17]) was 83. It also gave a GDI (SW900; [18]) of 75, a GDI (SW900; [19]) of 64 and a GDI (SW900; [20]) of 28. The GDI (UMUC11; [1]) was 100, the GDI (UMUC11; [2]) was 100 and the GDI (UMUC11; [3]) was 100. For the same compound, the GDI (UMUC11; [4]) was 100, the GDI (UMUC11; [5]) was 100 and the GDI (UMUC11; [6]) was 100. It also gave a GDI (UMUC11; [7]) of 100, a GDI (UMUC11; [8]) of 100 and a GDI (UMUC11; [9]) of 100. The GDI (UMUC11; [10]) was 100, the GDI (UMUC11; [11]) was 100 and the GDI (UMUC11; [12]) was 100. It also gave a GDI (UMUC11; [13]) of 100, a GDI (UMUC11; [14]) of 87 and a GDI (UMUC11; [15]) of 72. The GDI (UMUC11; [16]) was 70, the GDI (UMUC11; [17]) was 74 and the GDI (UMUC11; [18]) was 63. It also gave a GDI (UMUC11; [19]) of 32, a GDI (UMUC11; [20]) of −88 and a GDI (UMUC5; [1]) of 97. For the same compound, the GDI (UMUC5; [2]) was 100, the GDI (UMUC5; [3]) was 100 and the GDI (UMUC5; [4]) was 100. For the same compound, the GDI (UMUC5; [5]) was 100, the GDI (UMUC5; [6]) was 96 and the GDI (UMUC5; [7]) was 100. The GDI (UMUC5; [8]) was 99, the GDI (UMUC5; [9]) was 100 and the GDI (UMUC5; [10]) was 100. The GDI (UMUC5; [11]) was 100, the GDI (UMUC5; [12]) was 100 and the GDI (UMUC5; [13]) was 75. It also gave a GDI (UMUC5; [14]) of 26, a GDI (UMUC5; [15]) of 17 and a GDI (UMUC5; [16]) of 16. It also gave a GDI (UMUC5; [17]) of 15, a GDI (UMUC5; [18]) of 5 and a GDI (UMUC5; [19]) of −87. The GDI (UMUC5; [20]) was −91 and the “single agent dose sufficient to maximally inhibit cell growth” value (UMUC5; single agent) was 5 µM.

Nc1nc(=O)n(-c2ccccc2Cl)c2nc(C(F)(F)F)ccc12 [Compound A] showed a GDI (NCI-H838; single agent, 1000 nM Cmpd A) of 52, a GDI (RT112/84; single agent, 1000 nM Cmpd A) of 60 and a GDI (SW900; single agent, 1000 nM Cmpd A) of 99. The GDI (UMUC11; single agent, 1000 nM Cmpd A) was 92 and the GDI (UMUC5; single agent, 1000 nM Cmpd A) was 59.

NS(=O)(=O)c1ccc(S(=O)(=O)Nc2cccc3c(Cl)c[nH]c23)cc1 [Indisulam, N-(3-chloro-1H-indol-7-yl)benzene-1,4-disulfonamide] was tested, and the IC50 (NCI-H2170; NCI-H2170, Cmpd A pre-treatment 80 nM) was 5.55 µM and the IC50 (NCI-H2170; NCI-H2170, DMSO pre-treatment) was 7.17 µM.
